Literature values, collected in patent publication US5424332A, “Pharmaceutical composition and process for the production thereof” (priority 1993, dated 1995).

Test system: aflotoxin toxic effects

For `O=C(O)/C=C/C(=O)O` [fumaric acid], the “toxic effects of aflotoxin” value is given as “reduces the toxic effects”.
